Experimental data taken from patent US9708336B2, “Metallo-beta-lactamase inhibitors” (priority 2014, dated 2017).
Read-outs that look alike come from different tables or passages of the source.

Tests used:
IMP-1 = IMP-1 (Serratia marcescens, UniProt P52699); test: biochemical; format: biochemical; conditions: read-out: IMP-1 IC50
NDM-1 = NDM-1 (Klebsiella pneumoniae, UniProt C7C422); test: biochemical; format: biochemical; conditions: read-out: NDM-1 IC50
[1] = system: Serratia marcescens expressing IMP-1 (CL5741); test: Antibiotic potentiation activity: synergistic concentration (MITC95) with imipenem, OD600 growth; format: cell-based; conditions: for Serratia marcescens MITC95: 95% growth inhibition
Summary of the method: (§1)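 Bacteria were grown overnight on agar at 35 °C, diluted 1:100 from saline into 1.1× CAMHB, then given compound with or without imipenem (4 μg/ml in assay, optionally 1 μg/ml). Endpoint: absorbance at 22–24 h.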

[2] = system: Klebsiella pneumoniae expressing VIM-1 (IHMA599644); test: as above; format: cell-based; conditions: for Klebsiella pneumoniae MITC95: 95% growth inhibition
Summary of the method: as §1

[3] = system: Escherichia coli expressing NDM-1 (CLB30016); test: as above; format: cell-based; conditions: for Escherichia coli MITC95: 95% growth inhibition
Summary of the method: as §1

VIM-1 = VIM-1 (Pseudomonas aeruginosa (strain ATCC 15692 / DSM 22644 / CIP 104116 / JCM 14847 / LMG 12228 / 1C / PRS 101 / PAO1), UniProt A0A0F7KYQ8); test: Enzyme activity: determination of IC50, fluorescence assay with CCF2-FA substrate (VIM-1); format: biochemical
[4] = IMP-1 enzyme, CCF2-FA fluorescence assay
[5] = NDM-1 enzyme, CCF2-FA fluorescence assay
[6] = Serratia marcescens expressing IMP-1 (CL5741)
[7] = Klebsiella pneumoniae expressing VIM-1 (IHMA599644)
[8] = Escherichia coli expressing NDM-1 (CLB30016)
[9] = VIM-1 enzyme, CCF2-FA fluorescence assay, read-out: VIM-1 IC50
[10] = IMP-1 enzyme, CCF2-FA substrate
[11] = NDM-1 enzyme, CCF2-FA substrate
[12] = Serratia marcescens CL5741 (IMP-1)
[13] = Klebsiella pneumoniae IHMA599644 (VIM-1)
[14] = VIM-1 enzyme, CCF2-FA substrate, read-out: VIM-1 IC50
[15] = fluorescence assay with CCF2-FA substrate
[16] = concentration giving 95% inhibition of bacterial growth

Sequence of NDM-1 (C7C422 whole entry, looked up, species assumed): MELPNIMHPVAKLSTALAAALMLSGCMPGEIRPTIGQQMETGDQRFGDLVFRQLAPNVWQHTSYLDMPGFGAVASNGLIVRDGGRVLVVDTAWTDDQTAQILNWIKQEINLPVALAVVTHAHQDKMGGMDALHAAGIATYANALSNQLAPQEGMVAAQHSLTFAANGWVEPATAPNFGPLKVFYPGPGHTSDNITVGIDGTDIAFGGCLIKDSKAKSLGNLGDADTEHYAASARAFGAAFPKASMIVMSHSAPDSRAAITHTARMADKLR
Sequence of IMP-1 (P52699 whole entry, looked up): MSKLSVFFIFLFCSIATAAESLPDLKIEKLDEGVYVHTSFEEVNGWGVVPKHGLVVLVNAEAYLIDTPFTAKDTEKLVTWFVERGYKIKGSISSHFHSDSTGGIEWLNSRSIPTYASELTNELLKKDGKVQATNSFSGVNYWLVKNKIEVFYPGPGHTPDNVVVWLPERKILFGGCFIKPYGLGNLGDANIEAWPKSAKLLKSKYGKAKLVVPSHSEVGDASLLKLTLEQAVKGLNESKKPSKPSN

Row | Structure (SMILES) | IC50 (IMP-1; [4]) [µM] | IC50 (NDM-1; [5]) [µM] | Serratia marcescens MITC95 [1, 6] [µM] | Klebsiella pneumoniae MITC95 [2, 7] [µM] | Escherichia coli MITC95 [3, 8] [µM] | IC50 (VIM-1; [9]) [µM] | IC50 (IMP-1; [10]) [µM] | IC50 (NDM-1; [11]) [µM] | Serratia marcescens MITC95 [1, 12] [µM] | Klebsiella pneumoniae MITC95 [2, 13] [µM] | Escherichia coli MITC95 ([3]; (CLB30016, NDM-1)) [µM] | IC50 (VIM-1; [14]) [µM] | also measured
1 | CN(C)CCCN(C)Cc1ccc(-c2cccc(S(N)(=O)=O)c2-c2nnn[nH]2)cc1 [Example 368, 4′-({[3-(dimethylamino)propyl](methyl)amino}methyl)-2-(1H-tetrazol-5-yl)biphenyl-3-sulfonamide] | 0.417 | 0.0234 | 9.375 | >200 | 1.563 | 1.68 |  |  |  |  |  |  | 
2 | NS(=O)(=O)c1cccc(-c2ccc(CN3CCC(CCO)C3)cc2)c1-c1nnn[nH]1 (stereo not drawn) [Example 393, 4′-{[3-(2-hydroxyethyl)pyrrolidin-1-yl]methyl}-2-(1H-tetrazol-5-yl)biphenyl-3-sulfonamide] | 0.338 | 0.0108 | 4.688 | 200 | 1.563 | 0.509 |  |  |  |  |  |  | 
3 | CN1CC(NCc2ccc(-c3cccc(S(N)(=O)=O)c3-c3nnn[nH]3)cc2)C1 [Example 331, 4′-(((1-methylazetidin-3-yl)amino)methyl)-2-(1H-tetrazol-5-yl)-[1,1′-biphenyl]-3-sulfonamide] | 0.392 | 0.0306 | 6.25 | 150 | 1.172 | 1.19 |  |  |  |  |  |  | 
4 | NC1(c2ccc(-c3ccc(C(F)(F)F)c(S(N)(=O)=O)c3-c3nnn[nH]3)cc2)CCCC1 [Example 729, 4′-(1-aminocyclopentyl)-2-(1H-tetrazol-5-yl)-4-(trifluoromethyl)biphenyl-3-sulfonamide] |  |  |  |  |  |  | 0.00697 | 0.00485 | 6.25 | 25 | 6.25 | 0.00737 | 
5 | CN1CCN(c2ncc(-c3cccc(S(N)(=O)=O)c3-c3nnn[nH]3)cn2)CC1 [Example 128, 3-(2-(4-methylpiperazin-1-yl)pyrimidin-5-yl)-2-(1H-tetrazol-5-yl)benzenesulfonamide] |  |  |  |  |  |  |  |  |  |  |  |  | IC50 (IMP-1; [15]): 0.453 µM; IC50 (NDM-1; [15]): 0.00795 µM; Serratia marcescens expressing IMP-1 (CL5741) MITC95 [1, 16]: 9.375 µM; Klebsiella pneumoniae expressing VIM-1 (IHMA 599644) MITC95 [2, 16]: >200 µM; Escherichia coli expressing NDM-1 (CLB 30016) MITC95 [3, 16]: 1.563 µM; IC50 (VIM-1; fluorescence assay with CCF2-FA substrate, read-out: VIM-1 IC50): 1.14 µM
6 | CNCC(C)NCc1ccc(-c2cccc(S(N)(=O)=O)c2-c2nn[nH]n2)cc1 (stereo not drawn) [Example 359, 4′-({[1-methyl-2-(methylamino)ethyl]amino}methyl)-2-(2H-tetrazol-5-yl)biphenyl-3-sulfonamide] | 0.104 | 0.013 | 3.125 | >200 | 4.688 | 1.87 |  |  |  |  |  |  | 
7 | NS(=O)(=O)c1c(C(F)(F)F)ccc(-c2ccc3c(c2)CNCC3)c1-c1nnn[nH]1 [Example 720, 3-(1,2,3,4-tetrahydroisoquinolin-7-yl)-2-(1H-tetrazol-5-yl)-6-(trifluoromethyl)benzenesulfon-amide] |  |  |  |  |  |  | 0.0161 | 0.00304 | 12.5 | 3.125 | 6.25 | 0.00104 | 
8 | NS(=O)(=O)c1c(C(F)(F)F)ccc(-c2cnc3[nH]ccc3c2)c1-c1nnn[nH]1 [Example 708, 3-(1H-pyrrolo[2,3-b]pyridin-5-yl)-2-(1H-tetrazol-5-yl)-6-(trifluoromethyl)benzenesulfon-amide] |  |  |  |  |  |  | 0.0016 | 0.00038 | 6.25 | 6.25 | 1.563 | 0.000144 | 
9 | Nc1nc2ccc(-c3ccc(C(F)(F)F)c(S(N)(=O)=O)c3-c3nnn[nH]3)cc2[nH]1 [Example 552, 3-(2-amino-3H-benzimidazol-5-yl)-2-(1H-tetrazol-5-yl)-6-(trifluoromethyl)benzenesulfonamide] |  |  |  |  |  |  | 0.0072 | 0.00133 | 1.563 | 1.563 | 0.3906 |  | IC50 (VIM-1; VIM-1 IC50, VIM-1 enzyme, CCF2-FA substrate): 0.000262 µM
